Tests used:
[1] = tested on: advanced head, neck, breast and ovarian cancer; conditions: small group of patients with advanced head; cited from earlier work
[2] = tested on: cancer cell lines B16-F0, Hs294T, LoVo, LoVo/DX, MCF-7, MV-4-11; test: In vitro cytotoxicity tests (SRB / MTT) on cancer cell lines; type: cell-based, human and murine; conditions: versus salinomycin; from Table 3 IC50 data; 72 hours incubation
Description: (§1) The solvent for further dilutions was a culture medium.
(§2) The experiments were repeated at least 3 times.
(§3) After 4 hours of incubation at 37° C., 80 μL of lysis buffer was added to each well.

[3] = tested on: MV-4-11 (human biphenotypic leukaemia); test: In vitro cytotoxicity test, MTT assay, MV-4-11; type: cell-based; conditions: 72 hours incubation
Description: as §1, §2, §3

Row | Structure (SMILES) | effect on cancer progression [1] | side effects [1] | anti-proliferative effect compared to the parent compound [2] | effect against biphenotypic leukaemia cells [3]
1 | CC[C@@H](C(=O)[C@@H](C)[C@@H](O)[C@H](C)[C@@H]1O[C@@H]([C@@H](CC)C(=O)O)CC[C@@H]1C)[C@H]1O[C@]2(C=C[C@@H](O)[C@]3(CC[C@@](C)([C@H]4CC[C@](O)(CC)[C@H](C)O4)O3)O2)[C@H](C)C[C@@H]1C [Salinomycin] | inhibition of cancer progression | no acute side effects | – | –
2 | CC[C@@H](C(=O)[C@@H](C)[C@@H](O)[C@H](C)[C@@H]1O[C@@H]([C@@H](CC)C(=O)O)CC[C@@H]1C)[C@H]1O[C@]2(C=C[C@@H](NC(=O)C(C)C)[C@]3(CC[C@@](C)([C@H]4CC[C@](O)(CC)[C@H](C)O4)O3)O2)[C@H](C)C[C@@H]1C [formula (10), C20-dehydroxy-C20-aminosalinomycin N-isobutyramide] | – | – | several times more potent | –
3 | CC[C@@H](C(=O)[C@@H](C)[C@@H](O)[C@H](C)[C@@H]1O[C@@H]([C@@H](CC)C(=O)O)CC[C@@H]1C)[C@H]1O[C@]2(C=C[C@@H](NC(=O)c3ccccc3)[C@]3(CC[C@@](C)([C@H]4CC[C@](O)(CC)[C@H](C)O4)O3)O2)[C@H](C)C[C@@H]1C [formula (15), C20-dehydroxy-C20-aminosalinomycin N-benzamide] | – | – | several times more potent | –
4 | C#CCOC(=O)N[C@@H]1C=C[C@]2(O[C@H]([C@@H](CC)C(=O)[C@@H](C)[C@@H](O)[C@H](C)[C@@H]3O[C@@H]([C@@H](CC)C(=O)O)CC[C@@H]3C)[C@@H](C)C[C@H]2C)O[C@@]12CC[C@@](C)([C@H]1CC[C@](O)(CC)[C@H](C)O1)O2 [formula (22), C20-dehydroxy-C20-aminosalinomycin N-propargylcarbamate] | – | – | tens of times more potent | –
5 | CC[C@@H](C(=O)[C@@H](C)[C@@H](O)[C@H](C)[C@@H]1O[C@@H]([C@@H](CC)C(=O)[O-])CC[C@@H]1C)[C@H]1O[C@]2(C=C[C@@H](NC(=O)NCCCCl)[C@]3(CC[C@@](C)([C@H]4CC[C@](O)(CC)[C@H](C)O4)O3)O2)[C@H](C)C[C@@H]1C.[Na+] [formula (25), 3-chloropropylurea of C20-dehydroxy-C20-aminosalinomycin] | – | – | tens of times more potent | preferred effect
